Data on twelve compounds can be found in publication PMC8038991, “R-catcher, a potent molecular tool to unveil the arginylome” (Cellular and Molecular Life Sciences: CMLS, 2021).

“Also recorded” adds a separate entry of the source. Where two headings read alike, the source gives them in different places. Peptide text beside a SMILES is read from it.

Experiment [1] has as its system ZZ wild type, ZZ (N132D) and ZZ (N132Q). Briefly: Isothermal titration calorimetry, any ZZ domain (wild type, N132D, N132Q). The settings on record: ITC, 25 °C. The experiment is classed as binding, human. On the procedure:
(§1) For isothermal titration calorimetry (ITC), GST-fused p62 (122–175) wild type and mutants (N132Q and N132D) were expressed in E. coli BL21 (DE3) RIL competent cells in Luria–Bertani media with 0.1 mM Isopropyl-β-D-thio-galactoside (IPTG) at 18 °C. Cells were collected and sonicated in a B buffer (50 mM Tris–HCl pH 7.5, 200 mM NaCl) containing 3 mM β-mercaptoethanol (β-ME). Cell lysates were centrifuged at 18,000 × g for 1 h to remove cell debris, and this supernatant was loaded onto Glutathione Sepharose™ 4 Fast Flow resin and washed with B buffer. GST-fused proteins were eluted with 20 mM glutathione in an elution buffer (100 mM Tris–HCl pH 7.5, 200 mM NaCl, and 3 mM β-ME). The eluted samples were dialyzed in a dialysis buffer (50 mM Tris–HCl pH 7.5, 50 mM NaCl, and 3 mM β-ME) with or without TEV protease. These samples were loaded onto anion exchange column (HiTrap Q HP, GE Healthcare) and unbounded samples were collected and loaded onto size exclusion chromatography (HiLoad ™ 25/600 Superdex™ 75 pg column, GE healthcare) with the B buffer containing 0.2 mM Tris(2-carboxyethyl)phosphine (TCEP).
(§2) Purified proteins were concentrated to 0.05 mM. 4-mer peptides as injectant were resolved in B buffer to a final concentration of 1 mM. ITC measurement was performed at 25 °C on a Microcal Auto-ITC200.

In experiment [2] the test system is R-catcher. The experiment is described as follows: Small-scale R-catcher pulldown of known arginylated proteins. The experiment is classed as binding, human. As to conditions: for pulldown by R-catcher, overexpressed substrates: HEK293 cells, R-catcher on tactin beads, immunoblot. On the procedure:
(§3) For small-scale R-catcher pull-down assays, 300 µg of purified R-catcher was conjugated with 120 µl of Strep-Tactin sepharose resin by incubating overnight at 4 °C. To test R-catcher’s ability to capture known arginylated proteins, such as R-BiP, R-PDI, R-nsP4 and R-RGS4, plasmids encoding Ub-X-(BiP, PDI and nsP4) or MX-RGS4 (X = Arg or Val) were transiently transfected into HEK293 cells. After 24 h, cells were treated with 10 µM MG132 and 100 nM thapsigargin for another 24 h. Cells were harvested and lysed in hypotonic buffer and 300 µg total protein was incubate with 25 µl R-catcher-sepharose resin in binding buffer (20 mM HEPES pH 7.9, 0.05% Tween 20, 10% glycerol, 0.2 M KCl, protease inhibitor and phosphatase inhibitor) for 3 h with gentle rotation at 4 °C. After three washes with binding buffer, bound proteins were dissociated with 2 × SDS sample buffer and boiling at 100 °C and subjected to immunoblotting using anti-myc or flag antibodies.
A general note: A western blot detects proteins with antibodies after separation by electrophoresis.

For experiment [3], the target named is T1, wild type ZZ122-175 (p62) (Homo sapiens, UniProt Q13501).
T1 construct: GST-fused p62 (122–175) wild type and mutants (N132Q and N132D) were expressed in E. coli; GST (N); made in house; host or cells: E. coli BL21 (DE3) RIL
T1 sequence (Q13501 122-175): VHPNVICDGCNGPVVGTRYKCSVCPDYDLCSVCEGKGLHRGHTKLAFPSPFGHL
The experiment is described as follows: Isothermal titration calorimetry, wild type ZZ (Fig. 3b). As to conditions: ITC, wild type ZZ122-175, 25 °C; read-out: binding affinity (KD). Background: ITC needs no label: the signal is the heat of the interaction.

In experiment [4] the target is T2, GST-ZZ122-175 domain (p62) (Homo sapiens, UniProt Q13501).
T2 construct: GST-fused p62 (122–175) wild type and mutants (N132Q and N132D) were expressed in E. coli; made in house; host or cells: E. coli BL21 (DE3) RIL
T2 sequence (Q13501 122-175): as above
The experiment is described as follows: Isothermal titration calorimetry, GST-ZZ122-175 (Fig. 2e). The experiment is classed as binding. Here is the method: as §1, §2

The target in experiment [5] is T3, N132D mutant ZZ122-175 (p62) (Homo sapiens, UniProt Q13501, N132D).
T3 construct: GST-fused p62 (122–175) wild type and mutants (N132Q and N132D) were expressed in E. coli; GST (N); made in house; host or cells: E. coli BL21 (DE3) RIL
T3 sequence (Q13501 122-175 N132D): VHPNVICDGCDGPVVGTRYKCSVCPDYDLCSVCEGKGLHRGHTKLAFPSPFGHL
The experiment is described as follows: Isothermal titration calorimetry, N132D ZZ. As to conditions: ITC, N132D ZZ122-175, 25 °C; read-out: binding affinity (KD).

In experiment [6] the test system is R-catcher. The experiment is described as follows: R-catcher pulldown of putative arginylated ER proteins, HeLa. The experiment is classed as binding, human. The settings on record: 5 µM MG132 plus 100 nM TG, RA competition, Fig. 6a. On the procedure: as §3
Plasmids encoding the proteins were transiently transfected to HeLa cells for 24 h and stimulated with 5 µM MG132 plus 100 nM TG for another 24 h. Cell lysates were incubated with R-catcher immobilized on tactin beads for 3 h. After wash, bound proteins were eluted with 2 × SDS sample buffer followed by boiling at 100 °C for 10 min and visualized by western blot analysis. b R-catcher pulldown assays to validate ATE1-dependent arginylation of […]1, PRDX4, FBLN1 and CLUS. Plasmids encoding […]1, PRDX4, FBLN1 and CLUS were transiently transfected into + / + and ATE1^−/− MEFs for 24 h and stimulated with 5 µM MG132 plus 100 nM TG for another 9 h. Cell lysates were subjected to R-catcher pulldown, and bound proteins were detected by western blot analysis. c R-catcher pull-down assays to evaluate if the arginylation of FBNL1, SERPINH1, CLUS and PRDX4 is induced in response to MG132 plus thapsigargin. d X-peptide pulldown assays to confirm no interaction of R-catcher with Nt-Ala19 of SERPINH1 peptides and Nt-Trp38 of PRDX4 peptides. X-peptides where X is A19 (SignalP predicted P1’ site), E20 (next possible P1’ site predicted by PrediSi) or R19 (Arginylated form of Glu) for SERPINH1 and W38 (SignalP predicted P1’ site), E39 (next possible P1’ site predicted by PrediSi) or R38 (Arginylated form) for PRDX4. Biotinylated X-peptides immobilized on streptavidin agarose beads were incubated with affinity-purified GST-ZZ ([…]). Bound GST-ZZ (N132D) was detected by immunoblotting. e Identification of arginylated sites employing mutational analysis. Predicted P1’ sites of SERPINH1, PRDX4, CLUS and FBLN1 were substituted to Gly, and the inhibitory effect of the mutation on binding with R-catcher was examined by performing R-catcher pulldown assays

Experiment [7] deals with T4, N132Q mutant ZZ122-175 (p62) (Homo sapiens, UniProt Q13501, N132Q).
T4 construct: GST-fused p62 (122–175) wild type and mutants (N132Q and N132D) were expressed in E. coli; GST (N); made in house; host or cells: E. coli BL21 (DE3) RIL
T4 sequence (Q13501 122-175 N132Q): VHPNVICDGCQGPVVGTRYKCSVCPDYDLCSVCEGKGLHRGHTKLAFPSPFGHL
Briefly: biochemical. The experiment is classed as binding.

Experiment [8] deals with HeLa cell extracts stimulated with MG132 plus TG. The experiment is described as follows: Large-scale R-catcher pulldown coupled to silver staining and LC-MS/MS. As to conditions: for presence in R-catcher working list: LC-MS/MS working list. Further details: species or system human. Here is the method: For large-scale R-catcher pulldown assays, HeLa cells were treated with 5 µM MG132 and 100 nM thapsigargin for 24 h. Cells were lysed in hypotonic buffer and 10 mg total was incubated with 750 µl R-catcher-sepharose beads for 3 h at 4 °C after pre-clearing with D129A mutant R-catcher-sepharose beads for 3 h at 4 °C. After three washes with binding buffer, bound proteins were eluted with binding buffer containing 20 mM D-biotin. To remove R-catcher, the eluent was dialyzed using 20 kDa cut-off dialysis membrane in binding buffer containing 3.5 M MgCl2 overnight followed by another overnight dialysis in distilled-deionized water. The dialyzed eluent was lyophilized overnight and dried powder was dissolved in 100 µl LC/MS solubilizer for silver staining and mass spectrometry analysis.
Protein samples solubilized in Invitrosol LC/MS solubilizer (Invitrogen) as following by manufacturer protocol. For removal of incompatible buffer components, protein samples filtrate with 10 K MW ultrafilter for complete digestion. For preparing trypsinization of samples, the retentates were dissolved in 50 mM of ammonium bicarbonate (pH 8.0) untill it reach 1 μg/μL of final concentration. The samples treated with 10 mM DTT at 60 °C for 45 min. Following 20 mM IAA addition, the final mixture incubated in dark for 45 min at 25 °C. 1:50 ratio of Trypsin was added on mixture. The mixture incubated overnight at 37 °C. Final digested samples dried with speed-vacuum. Samples re-dissolved in 20 μL of water containing 0.1% formic acid for LC–MS/MS analysis.
Peptides were analyzed using a LC–MS/MS system consisting of an Easy nLC 1000 (Thermo Fisher scientific) and an Orbitrap Fusion Lumos mass spectrometer (Thermo Fisher Scientific) equipped with a nano-electrospray source (EASY-Spray Sources, Thermo Fisher Scientific). Peptides were trapped 75 μm × 2 cm C18 pre-column (nanoViper, Acclaim PepMap100, Thermo Fisher Scientific) before being separated on an analytical C18 column (75 μm × 50 cm PepMap RSLC, Thermo Fisher Scientific) at a flow rate of 300 nL/min. The mobile phases A and B were composed of 0 and 100% acetonitrile containing 0.1% formic acid, respectively. The LC gradient began with 5% B and was ramped to 8% B for 1 min, 10% B for 16 min, to 40% B for 79 min, to 80% B for 1 min, and remained at 80% B over 8 min. Finally, it was ramped to 5% B for another 5 min. The column was re-equilibrated with 2% B for 10 min before the next run. The voltage applied to produce an electrospray was 1900 V. During the chromatographic separation, the Orbitrap Fusion Lumos was operated in data-dependent mode, automatically switching between MS1 and MS2. The MS data were acquired using the following parameters: Full-scan MS1 spectra (400–1600 m/z) were acquired in the Orbitrap for a maximum ion injection time of 100 ms at a resolution of 120,000 and an automatic gain control (AGC) target value of 4.0e5. MS2 spectra were acquired in the Orbitrap mass analyzer at resolution of 30,000 with high-energy collision dissociation (HCD) of 27% normalized collision energy and AGC target value of 5.0e4 with maximum ion injection time of 54 ms. Previously fragmented ions were excluded for 30 s.
MS/MS spectra were analyzed using the following software analysis protocols with the Uniprot human DB (2019). The reversed sequences of all proteins were appended into the database for calculation of false discovery rate (FDR). ProLucid was used to identify the peptides, a precursor mass error of 5 ppm, and a fragment ion mass error of 200 ppm. Trypsin was selected as the enzyme, with one potential missed cleavage. Carbamidomethylation at cystein was chosen as static modifications. Oxidation at methionine was chosen as variable modification. The output data files were filtered and sorted to compose the protein list using the DTASelect (The Scripps Research Institute, USA) with two and more peptides assignments for a protein identification and a false positive rate less than 0.01. […]

On to IIFS [peptide], for which, in experiment [1], the “affinity for ZZ domains” value was “no affinity”.

As for R-PDI: arginylated PDI, in the experiment with R-catcher [2] (preliminary result, N-termini enhancing methods), the “R-PDI binding to R-catcher, preliminary” value is recorded as “detected R-PDI binding to R-catcher”.

On to TIFS [4-mer peptide], for which the “affinity for ZZ domains” value in experiment [1] was “no affinity”.

By Kd is commonly meant the equilibrium constant for the complex coming apart. As to `CC[C@H](C)[C@H](NC(=O)[C@@H](N)Cc1ccc(O)cc1)C(=O)N[C@@H](Cc1ccccc1)C(=O)N[C@@H](CO)C(=O)O` [YIFS] (H-YIFS-OH), the Kd in experiment [3] was found to be 20.7 µM; in experiment [4] (ITC, (GST-)ZZ122-175 wild type, 25 °C, read-out: KD), 16.1 µM; in experiment [5], 107 µM.

In the case of ENPL: endoplasmin, the “binding with R-catcher, Nt-Arg dependence” value in the experiment on R-catcher [6] is reported as “no significant binding affinity for R-catcher”.

With `CC[C@H](C)[C@H](NC(=O)[C@@H](N)CCCNC(=N)N)C(=O)N[C@@H](Cc1ccccc1)C(=O)N[C@@H](CO)C(=O)O` [RIFS] (H-RIFS-OH), the Kd in experiment [7] worked out at 21.4 ± 9.51 µM; in experiment [3] it was 6.9 µM; in experiment [4], 4.39 ± 0.449 µM; in experiment [5], 2.85 µM.

For FIFS [peptide], the “affinity for ZZ domains” value in experiment [1] is given as “no affinity”.

Take FKBP10: FK506-binding protein 10: in the experiment with R-catcher [6], the “binding with R-catcher, Nt-Arg dependence” value was “Nt-Arg-dependent binding with R-catcher; also recorded: unusually high binding affinity for R-catcher”.

“PDI: protein disulfide isomerase, arginylated (2nd Asp)”: the “binding affinity for R-catcher” value in the experiment with R-catcher [2] (Fig. 4d, discussion) is “low binding affinity”. The “pulldown by R-catcher, overexpressed substrates” value with R-catcher [2] (Fig. 4d) is on record as “could pulldown”. For the same compound, the “presence in R-catcher working list” value in experiment [8] is on record as “not detected in our list”.

As for “BiP: ER chaperone BiP, arginylated (2nd Glu)”, in the experiment on R-catcher [2] (Fig. 4d), the “pulldown by R-catcher, overexpressed substrates” value was “could pulldown”. Moreover, the “pulldown by R-catcher, endogenous” value in the experiment on R-catcher [2] (HeLa, MG132 plus TG, Fig. 4e) is on record as “could pulldown”. Further, the “presence in R-catcher working list” value in experiment [8] is given as “among the known arginylated proteins”.

On to “R-catcher: ZZ122-175^N132D tagged with twin strepII-His6 at the N-terminus, approximately 9 kDa protein”, for which the “number of known and putative arginylated proteins captured (final working list)” value in experiment [8] (HeLa, MG132 + TG) came to 59 proteins. Also, the “number of proteins in WT list” value in experiment [8] (no dipeptide, LC-MS/MS, Fig. 5c) amounted to 83 proteins. Moreover, the “number of proteins in AR list” value in experiment [8] (with AR dipeptide competition) came to 163 proteins. Moreover, the “number of proteins in RA list” value in experiment [8] (with RA dipeptide competition) stood at 42 proteins.

With LIFS [peptide], in experiment [1], the “affinity for ZZ domains” value was “no affinity”.
